Each block holds one compound with its values, some of them ahead of it.
Key:
[1] = Storage testing under severely stressed condition of crystals suspended in water, isomer formation by HPLC; format: physicochemical; details: light 6000 1×, 80° C., 6 hours, ratio to charging amount of luliconazole
Protocol: The storage testing under severely stressed condition was performed for Crystals 1 to 4. That is, each of the samples was suspended in water (infiltration condition or humidified condition), which was exposed to light at 6000 1× at 80° C. for 6 hours, followed by being collected by filtration and dried. After that, the ratio of the Z isomer of luliconazole with respect to the charging amount of luliconazole was measured and calculated. The measurement was performed by means of HPLC. The HPLC condition was as follows.
Column: CHIRALCEL OD-RH 4.6×150 mm, column temperature: 35° C., mobile phase: mixture solution of methanol/1.8% aqueous solution of potassium hexafluorophosphate (83:17, v/v), flow rate: 0.56 mL/min., detection: 295 nm.
As for the SE isomer, the storage testing under severely stressed testing was performed for the crystal in the same manner as the Z isomer. As a result, any difference was not observed in relation to the amount of formation depending on the difference in the crystal. That is, the tendency of the SE isomer was not observed for the crystal itself.

[2] = Surface free energy of crystal by liquid penetration rate measurement (contact angle, Owens-Wendt-Rabel-Kaelble method); format: physicochemical; details: crystal powder; for γS^d, dispersion component of surface free energy / γS^p, polar component of surface free energy: solvents n-hexane, tetrachloromethane, benzene, 1-nitropropane, water; for γS, surface free energy: sum of dispersion and polar component
Protocol: The measurement of the surface free energy of the crystal may be performed in accordance with an ordinary method. For example, the contact angle with respect to the crystal is measured by means of the liquid penetration (permeation) rate measurement (machine type of apparatus: Processor Tensiometer K12, manufacturer: KRUSS GmbH) by using several solvents for which the surface free energy, the dispersion component of the surface free energy, and the polar component of the surface free energy are already known, and thus it is possible to perform the calculation therefrom by applying the model of Owens, Wendt, Rabel, and Kaelble. Preferred solvents for measurement in this method can be appropriately exemplified, for example, by n-hexane, […], benzene, nitrobenzene, 1-nitropropane, and water. As for the method as described above, it is possible to make reference, for example, to a method described in Japanese Patent Application Laid-open No. 2010-183064.
In relation to the surface free energy, the contact angle θ is calculated in accordance with the Washburn's equation from the penetration (permeation) rate of liquid into powder obtained by the liquid penetration (permeation) rate measurement (machine type of apparatus: Processor Tensiometer K12, manufacturer: KRUSS GmbH). The penetration (permeation) rate of the liquid in the chamber into the powder is measured by using a chamber tube shown in FIG. 4. […] Washburn's equation is represented by the following equation 1.
If this equation is converted into the weight of the solvent permeated into the powder per unit time, the following equation 2 is presented.
The contact angle θ is determined by measuring the penetration (permeation) rate by using a solvent for which the surface tension (γL), the density (ρ), and the viscosity (η) of the liquid are known. The polar component and the dispersion component of the surface free energy are calculated in accordance with the Owens-Wendt-Rabel-Kaelble method by using θ thus determined. That is, assuming that the surface free energy is composed of the non-polar dispersion component γ^d and the polar component γ^p, the following equations are presented. γS=γS^d+γS^p γL=γLd+γLp γSL=γS+γL−2√{square root over (yS^d·γL^d)}−2√{square root over (γS^p·γL^p)} Equation 3
If Young's equation, which holds among the surface tension of the liquid, the surface tension of the solid, and the solid-liquid interfacial tension, is substituted with the above, the following equation is obtained.
The contact angle θ is determined, and plotted by using several types of solvents having known γL, γL^d, γL^p, and thus it is possible to determine γS^p from the slope and γs^d from the intercept. n-Hexane, tetrachloromethane, benzene, 1-nitropropane, and water were used as the known solvents.
By utilizing the above, the surface free energy, the dispersion component of the surface free energy, the polar component of the surface free energy, and the ratio (%) of the polar component with respect to the surface free energy were calculated for samples (specimens) manufactured by the following methods.

Amount of formation of Z isomer (%) under condition of suspension in water and exposure to light ([1]; listed as 1): 0.11% | γS^p/γS, ratio of polar component of surface free energy ([2]; listed as 1): 44% | γS^d, dispersion component of surface free energy ([2]; listed as 1): 16.1 mJ/m^2 | γS^p, polar component of surface free energy ([2]; listed as 1): 12.7 mJ/m^2 | γS, surface free energy ([2]; listed as 1): 28.8 mJ/m^2
SMILES: N#C/C(=C1/SC[C@@H](c2ccc(Cl)cc2Cl)S1)n1ccnc1 [Crystal 1, Luliconazole]

Amount of formation of Z isomer (%) under condition of suspension in water and exposure to light ([1]; listed as 4): 0.07% | γS^p/γS, ratio of polar component of surface free energy ([2]; listed as 4): 20% | γS^d, dispersion component of surface free energy ([2]; listed as 4): 20.3 mJ/m^2 | γS^p, polar component of surface free energy ([2]; listed as 4): 5.2 mJ/m^2 | γS, surface free energy ([2]; listed as 4): 25.5 mJ/m^2
SMILES: N#C/C(=C1/SC[C@@H](c2ccc(Cl)cc2Cl)S1)n1ccnc1 [Crystal 4, Luliconazole]

Amount of formation of Z isomer (%) under condition of suspension in water and exposure to light ([1]; listed as 2): 0.08% | γS^p/γS, ratio of polar component of surface free energy ([2]; listed as 2): 29% | γS^d, dispersion component of surface free energy ([2]; listed as 2): 19.5 mJ/m^2 | γS^p, polar component of surface free energy ([2]; listed as 2): 7.9 mJ/m^2 | γS, surface free energy ([2]; listed as 2): 27.4 mJ/m^2
SMILES: N#C/C(=C1/SC[C@@H](c2ccc(Cl)cc2Cl)S1)n1ccnc1 [Crystal 2, Luliconazole]

Amount of formation of Z isomer (%) under condition of suspension in water and exposure to light ([1]; listed as 3): 0.07% | γS^p/γS, ratio of polar component of surface free energy ([2]; listed as 3): 31% | γS^d, dispersion component of surface free energy ([2]; listed as 3): 18.4 mJ/m^2 | γS^p, polar component of surface free energy ([2]; listed as 3): 8.2 mJ/m^2 | γS, surface free energy ([2]; listed as 3): 26.6 mJ/m^2
SMILES: N#C/C(=C1/SC[C@@H](c2ccc(Cl)cc2Cl)S1)n1ccnc1 [Crystal 3, Luliconazole]

Reference: patent US9068958B1, “Use of surface free energy for differential evaluation of crystal, crystal evaluated on basis of surface free energy as index, and pharmaceutical composition prepared by containing the crystal” (POLA PHARMA INC., priority 2012, dated 2015)
